# Target: T1, Carboxypeptidase A1 (Homo sapiens, UniProt P15085)
# T1 sequence (P15085 whole entry): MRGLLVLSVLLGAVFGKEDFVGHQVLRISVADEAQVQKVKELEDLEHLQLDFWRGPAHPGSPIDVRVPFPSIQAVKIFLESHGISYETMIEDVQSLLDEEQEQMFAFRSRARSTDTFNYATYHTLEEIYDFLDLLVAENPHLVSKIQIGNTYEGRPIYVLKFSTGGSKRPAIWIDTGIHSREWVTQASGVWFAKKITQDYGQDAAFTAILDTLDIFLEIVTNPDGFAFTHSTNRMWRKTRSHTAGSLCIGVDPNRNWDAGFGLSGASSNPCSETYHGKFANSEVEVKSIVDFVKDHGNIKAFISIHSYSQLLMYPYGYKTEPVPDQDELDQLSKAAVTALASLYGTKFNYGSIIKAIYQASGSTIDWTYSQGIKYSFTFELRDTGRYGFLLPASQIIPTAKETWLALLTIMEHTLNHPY
# Assay: Inhibition of CPA
row,Structure (SMILES),Ki
1,O=C(O)C[C@@H](Cc1ccccc1)C(=O)O,450 nM
2,O=C(O)C(Cc1ccccc1)C[N+](=O)[O-] (racemic),790 nM
3,O=C(O)[C@@H](Cc1ccccc1)C[N+](=O)[O-],68000 nM
4,CC(C)CC(C[N+](=O)[O-])C(=O)O (racemic),2080 nM
5,C=CCC(C[N+](=O)[O-])C(=O)O (racemic),62600 nM

# Source: ChEMBL document CHEMBL1142385, “Nitro as a novel zinc-binding group in the inhibition of carboxypeptidase A” (Bioorg Med Chem, 2008)
